Assay results reported in patent US20100240611A1, “METHODS FOR PREPARING DPP-IV INHIBITOR COMPOUNDS” (priority 2009, published 2010).

Molecular target: T1, DPP-IV (Homo sapiens, UniProt P27487)
T1 construct: in an in vivo protocol study in humans; from tissue; host or cells: human subjects (in vivo)
Assay: in vivo protocol study in humans: selectivity of DPP-IV inhibition over other dipeptidyl peptidases
Conditions: other dipeptidyl peptidases named in the block: DPP-VII, DPP-VIII, DPP-IX, FAP

T1 sequence (P27487 whole entry): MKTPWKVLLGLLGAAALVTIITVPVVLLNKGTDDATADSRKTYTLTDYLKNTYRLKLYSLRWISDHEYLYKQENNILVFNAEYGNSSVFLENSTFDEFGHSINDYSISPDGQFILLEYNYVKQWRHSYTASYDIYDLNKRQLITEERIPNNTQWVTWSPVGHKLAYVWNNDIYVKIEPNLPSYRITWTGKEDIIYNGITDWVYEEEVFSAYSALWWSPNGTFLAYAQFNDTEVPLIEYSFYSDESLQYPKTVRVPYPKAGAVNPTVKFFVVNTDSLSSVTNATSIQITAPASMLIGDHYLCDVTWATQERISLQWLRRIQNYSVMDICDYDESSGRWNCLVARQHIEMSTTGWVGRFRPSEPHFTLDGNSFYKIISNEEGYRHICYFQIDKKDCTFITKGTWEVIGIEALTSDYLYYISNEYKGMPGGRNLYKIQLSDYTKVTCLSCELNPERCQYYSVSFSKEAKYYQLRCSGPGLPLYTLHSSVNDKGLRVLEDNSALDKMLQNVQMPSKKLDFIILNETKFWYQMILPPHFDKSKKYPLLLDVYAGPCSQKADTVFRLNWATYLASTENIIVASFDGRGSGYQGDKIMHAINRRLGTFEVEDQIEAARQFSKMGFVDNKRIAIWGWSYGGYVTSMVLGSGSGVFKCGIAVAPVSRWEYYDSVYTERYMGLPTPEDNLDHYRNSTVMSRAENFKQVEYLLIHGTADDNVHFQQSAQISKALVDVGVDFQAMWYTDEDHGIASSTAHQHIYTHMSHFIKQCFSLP

SMILES: O=C(CN[C@@H]1CCNC1)N1CCC[C@H]1B(O)O [compound of formula (I), dutogliptin]
- selectivity for inhibition of DPP-IV over the other amino dipeptidyl peptidases: maintained selectivity for inhibition of DPP-IV over the other amino dipeptidyl peptidases
